Values joined by “and” are separate entries in the source; they are usually repeats but may differ in a detail not shown here. Identical values can stand only once.
What was measured:
in vitro = type: cell-based; settings: human; Table 4; tryphan blue exclusion assay for MT2 cells; read-out: Cytotoxicity
Summary of the method: (§1)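 MT2 or cMAGI reporter cells infected with wild-type or resistant HIV-1 at 0.2-0.5 MOI for 4 days at 37° C with varying pAAC concentrations. Infection scored by counting blue-stained cMAGI cells and by microscopic syncytium assessment in MT2; cytotoxicity by trypan blue exclusion, as % dead cells.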

MT2 cells = test: in vitro; type: cell-based; settings: human
Summary of the method: as §1

[1] = test system: K. pneumoniae-ESBL positive; test: microbe, parasite or virus in culture; settings: Klebsiella pneumoniae, read-out: Minimum Inhibitory Concentration
[2] = test system: Enterococcus faecalis ATCC 29212; test: microbe, parasite or virus in culture; settings: ATCC29212, read-out: Minimum Inhibitory Concentration
E. Coli-ESBL negative = test: microbe, parasite or virus in culture; settings: Escherichia coli, read-out: Minimum Inhibitory Concentration
[3] = test system: Acinetobacter baumannii ATCC 19606; test: microbe, parasite or virus in culture; settings: ATCC19606, read-out: Minimum Inhibitory Concentration
[4] = test system: P. aeruginosa-gentamicin^r, meropenem^r; test: microbe, parasite or virus in culture; settings: Pseudomonas aeruginosa, read-out: Minimum Inhibitory Concentration
Serratia marcescens = test: microbe, parasite or virus in culture; settings: read-out: Minimum Inhibitory Concentration
[5] = test system: Enterobacter cloacae W25161; test: microbe, parasite or virus in culture; settings: W25161, read-out: Minimum Inhibitory Concentration
[6] = test system: Staphylococcus aureus ATCC 24213; test: microbe, parasite or virus in culture; settings: ATCC24213, read-out: Minimum Inhibitory Concentration
A. baumannii R16998 = test: microbe, parasite or virus in culture; settings: Acinetobacter baumannii, R16998, read-out: Minimum Inhibitory Concentration
[7] = test system: Klebsiella pneumoniae ATCC 13883; test: microbe, parasite or virus in culture; settings: ATCC13883, read-out: Minimum Inhibitory Concentration
Enterobacter aerogenes = test: microbe, parasite or virus in culture; settings: Klebsiella aerogenes, read-out: Minimum Inhibitory Concentration
[8] = test system: Enterococcus faecalis B84939-vancomycin^r; test: MIC, broth microdilution; type: cell-based; settings: Enterococcus faecalis; Gram positive clinical isolate; read-out: Minimum Inhibitory Concentration
S. aureus MRSA = test: microbe, parasite or virus in culture; settings: Staphylococcus aureus, read-out: Minimum Inhibitory Concentration
E. Coli-ESBL positive = test: microbe, parasite or virus in culture; settings: Escherichia coli, read-out: Minimum Inhibitory Concentration
[9] = test system: Proteus mirabilis ATCC 7002; test: microbe, parasite or virus in culture; settings: ATCC7002, read-out: Minimum Inhibitory Concentration
[10] = test system: Escherichia coli ATCC 25922; test: microbe, parasite or virus in culture; settings: ATCC25922, read-out: Minimum Inhibitory Concentration
A. baumannii E11436 = test: MIC, broth microdilution; type: cell-based, Acinetobacter baumannii; settings: clinical isolate, Table 7
Protocol: Minimal Inhibition Concentration (MIC) measurements: The Minimal Inhibitory Concentration (MIC) was generally determined by the Broth Microdilution method (based on the protocol described in Clinical and Laboratory Standard Institute (CLSI) NCCLS (2003) M7-A6), as follows:
A stock solution of each of the tested compounds was prepared by diluting the compound to a 2,560 μg/ml concentration with an appropriate solvent. The stock solution was then serially 2-fold diluted in 96-well microdilution trays using Cation-Adjusted Mueller-Hinton Broth (CAMHB) until reaching the desired range of concentrations, whereas each well contained double the final working concentration. Each row further had one growth control well (medium+inoculum only), and one sterility control well (medium+tested compound). Plates were stored at −70° C. until used.
The tested microorganisms were used as fresh overnight cultures on blood agar (for gram-positive organisms) or MacConkey agar (for gram-negatives). A standardized inoculum suspension was prepared by the direct colony suspension method, using sterile saline (equivalent to a 0.5 McFarland standard).
Thus, 50 μl of the inoculum suspension were added to each tested well (except for the sterility control well), and […] was performed during 18-24 hours (depending on the tested microorganism or compound) at 35° C.

CC(=O)N[C@H](CCCNC(=N)N)C(=O)N[C@H](CCCNC(=N)N)C(=O)N[C@H](CCCNC(=N)N)C(=O)N[C@H](CCCNC(=N)N)C(=O)N[C@H](CCCNC(=N)N)C(=O)N[C@H](CCCNC(=N)N)C(=O)N[C@H](CCCNC(=N)N)C(=O)N[C@H](CCCNC(=N)N)C(=O)N[C@H](CCCNC(=N)N)C(=O)O [Compound 12, D-Arg-9-mer-NHAc]
CC50 (in vitro): 150 µM

NCC1OC(OC2C(CO)OC(OC3C(O)C(N)CC(N)C3OC3OC(CN)C(O)C(O)C3N)C2O)C(N)C(O)C1O (stereo not shown) [Neomycin]
Cytotoxicity (MT2 cells): >300 µM | MIC [1]: 1.5 µg/mL and 1.65 µM | MIC [2]: 128 µg/mL and 141 µM | MIC (E. Coli-ESBL negative): 1 µg/mL and 1.1 µM | MIC [3]: 6 µg/mL and 6.6 µM | MIC [4]: 128 µg/mL and 141 µM | MIC (Serratia marcescens): 1 µg/mL and 1.1 µM | MIC [5]: 3 µg/mL and 3.3 µM | MIC [6]: 1.5 µg/mL and 1.65 µM | MIC (A. baumannii R16998): 32 µg/mL and 35.2 µM | MIC [7]: 0.7 µg/mL and 0.77 µM | MIC (Enterobacter aerogenes): 0.7 µg/mL and 0.77 µM | MIC [8]: 64 µg/mL and 70.4 µM | MIC (S. aureus MRSA): 1 µg/mL and 1.1 µM | MIC (E. Coli-ESBL positive): 4 µg/mL and 4.4 µM | MIC [9]: 1.5 µg/mL and 1.65 µM | MIC [10]: 1 µg/mL and 1.1 µM

D-Arg-9-mer-neomycin [Compound 14]
Minimum Inhibitory Concentration (A. baumannii E11436): 64.0 mg/L

From patent US20060166867A1, “Novel conjugates of polysaccharides and uses thereof” (priority 2003, published 2006)
